Measurements taken from patent US20120277161A1, “INHIBITION OF MULTIPLE CELL ACTIVATION PATHWAYS” (INTER-K PTY LIMITED, priority 2009, published 2012).

Tests used:
[1] = tested on: HT29 human colon cancer cells; test: Cell proliferation (MTT) assay, HT29 cells; assay type: cell-based; conditions: MTT, 48 hours
Description: 6.1 Cell Proliferation (MTT) Assay Single cell suspensions of viable trypsinised cells were seeded into 96-well tissue culture plates at a density of 2×10^3 cells per well in a volume of 100 μl of a suitable culture media supplemented with heat inactivated foetal calf serum (FCS) (e.g., Dulbecco's Modified Eagles Medium (DMEM), with 10% v/v FCS, 1% L-glutamine, 2% (v/v) Hepes, and antibiotics). A set of triplicate wells was prepared for each concentration of the peptide dendrimer being tested. Additional sample wells containing untreated cells or media alone were set up in each treatment plate and processed in parallel as reference controls. A zero-time plate of untreated cells and media-alone wells was simultaneously prepared and an MTT assay carried out on this plate at the time of addition of the kinase inhibitor (i.e., polypeptide or dendrimer) to treatment plates. All plates were cultured for 24 hours before addition of the test dendrimer.
To prepare the MTT solution 100 mg of MTT (3-(4,5-dimethylthiazolyl-2)-2,5-diphenyltetrazolium bromide) (Cat #. M-128, Sigma, St Louis Mo.), is mixed with 20 ml of PBS at pH 7.4. The resulting solution is filter sterilized (0.2 μM syringe filter) and stored at 4° C. protected from light until use. MTT substrate is cleaved in growing cells to yield a water insoluble salt. After solubilisation of the salt crystals, a coloured product is produced the measurement of which allows quantitation of the proliferative activity of the cultured cells.
Appropriate concentrations of the kinase inhibitor were prepared by dilution of freshly prepared sterile 1 mM stock solutions into cell culture media to give a final well volume of 200 μl containing 10% v/v FCS. The zero-plate was processed by addition of MTT at this time. Cell culture was continued for a further 24 or 48 hours before addition of 20 μl of MTT in PBS (5 mg/ml, 0.2 um filter sterilised). The MTT cell proliferation assay measures cell proliferation rate and, in instances where cell viability is compromised, the assay indicates a comparative reduction in cell viability. After a 3 hour incubation in the presence of MTT (5% CO2 in air at 37° C.), plates were centrifuged at 450 g for 5 minutes, supernatant was removed by gentle suction and precipitated tetrazolium salt resuspended into 150 μl DMSO:glycine (0.1M glycine, 0.1M NaCl pH 10.5) (6:1 v/v) solution. Plates were gently vortexed to complete solubilisation of crystalline material and absorbance was read at 550 nm using a microplate reader. Sample data were processed to determine the comparative growth of treated samples relative to untreated controls.
HT29 cells were cultured for 48 hours in the presence of selected dendrimers and proliferation of the cells was assessed by MTT assay essentially as described in Example 6.1. The results were calculated as percentage proliferation of control cells (not treated with dendrimer).

[2] = target: c-RAF (h) (Homo sapiens, UniProt P04049); test: c-RAF kinase activity assay; assay type: biochemical
Description: (§1) In a final reaction volume of 25 μL, c-RAF (h) (5-10 mU) is incubated with 25 mM Tris pH 7.5, 0.02 mM EGTA, 0.66 mg/mL myelin basic protein, 10 mM MgAcetate and [γ-33P-ATP] (specific activity approx. 500 cpm/pmol, concentration as required). The reaction is initiated by the addition of the MgATP mix. After incubation for 40 minutes at room temperature, the reaction is stopped by the addition of 5 μL of a 3% phosphoric acid solution. 10 μL of the reaction is then spotted onto a P30 filtermat and washed three times for 5 minutes in 75 mM phosphoric acid and once in methanol prior to drying and scintillation counting.

[3] = target: human ERK2 (Homo sapiens, UniProt P28482); test: ERK2 kinase activity assay (cell-free); assay type: biochemical
human ERK2, sequence (P28482 whole entry): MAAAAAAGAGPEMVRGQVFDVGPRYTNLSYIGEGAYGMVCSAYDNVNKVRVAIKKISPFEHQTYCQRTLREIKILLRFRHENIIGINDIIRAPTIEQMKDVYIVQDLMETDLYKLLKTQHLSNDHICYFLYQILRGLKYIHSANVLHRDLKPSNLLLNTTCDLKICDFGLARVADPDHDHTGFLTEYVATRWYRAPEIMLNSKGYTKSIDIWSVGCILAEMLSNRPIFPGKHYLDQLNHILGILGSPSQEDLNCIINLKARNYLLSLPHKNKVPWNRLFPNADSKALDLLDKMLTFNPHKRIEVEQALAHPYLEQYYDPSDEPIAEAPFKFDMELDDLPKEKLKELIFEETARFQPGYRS
Description: as §1, with “human ERK2” for “c-RAF (h)”, “0.33” for “0.66”

[4] = target: MEK1 (h) (Homo sapiens, UniProt Q02750); test: MEK1 kinase activity assay; assay type: biochemical
Description: The reaction is initiated by the addition of the MgATP. After incubation for 40 minutes at room temperature, 5 μL of this incubation mix is used to initiate an ERK2 (m) assay.

[5] = target: PKC beta I (Homo sapiens, UniProt P05771); test: PKC kinase activity assay; assay type: biochemical
PKC beta I, sequence (P05771 whole entry): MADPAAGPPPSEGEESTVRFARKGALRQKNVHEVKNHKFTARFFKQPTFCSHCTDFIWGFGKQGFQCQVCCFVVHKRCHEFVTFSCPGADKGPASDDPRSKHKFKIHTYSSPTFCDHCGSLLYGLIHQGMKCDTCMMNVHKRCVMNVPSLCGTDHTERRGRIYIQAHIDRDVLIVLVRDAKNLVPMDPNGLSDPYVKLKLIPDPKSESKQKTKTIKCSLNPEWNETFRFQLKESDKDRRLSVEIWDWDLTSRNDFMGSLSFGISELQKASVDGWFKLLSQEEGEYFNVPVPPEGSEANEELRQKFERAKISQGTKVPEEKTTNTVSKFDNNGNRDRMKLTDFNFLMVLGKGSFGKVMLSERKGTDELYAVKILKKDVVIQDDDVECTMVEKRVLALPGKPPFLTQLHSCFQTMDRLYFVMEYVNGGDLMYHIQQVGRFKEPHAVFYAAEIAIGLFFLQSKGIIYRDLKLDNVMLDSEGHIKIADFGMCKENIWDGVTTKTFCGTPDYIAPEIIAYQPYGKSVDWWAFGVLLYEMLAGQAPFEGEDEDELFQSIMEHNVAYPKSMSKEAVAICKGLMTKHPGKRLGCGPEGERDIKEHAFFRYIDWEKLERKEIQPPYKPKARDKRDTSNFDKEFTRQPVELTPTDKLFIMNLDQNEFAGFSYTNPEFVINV
Description: as §1, with “[…] PKC kinase” for “25 μL, c-RAF”, “with 20” for “with 25”, “mM HEPES” for “mM Tris”, “pH 7.4, 0.03% Triton X-100, […], 0.1” for “pH 7.5, 0.02 mM EGTA, 0.66”, “mg/mL phosphatidylserine, 10 μg/mL diacylglycerol, 0.1 mg/mL histone H1 or 50 μM of the peptide ERMRPRKRQGSVRRRV (SEQ ID No. 20),” for “mg/mL myelin basic protein,”

[6] = target: PKC alpha (Homo sapiens, UniProt P17252); test: PKC kinase activity assay; assay type: biochemical
Description: as §1, with “[…] PKC kinase” for “25 μL, c-RAF”, “with 20” for “with 25”, “mM HEPES” for “mM Tris”, “pH 7.4, 0.03% Triton X-100, […], 0.1” for “pH 7.5, 0.02 mM EGTA, 0.66”, “mg/mL phosphatidylserine, 10 μg/mL diacylglycerol, 0.1 mg/mL histone H1 or 50 μM of the peptide ERMRPRKRQGSVRRRV (SEQ ID No. 20),” for “mg/mL myelin basic protein,”

[7] = target: PKC beta II (Homo sapiens, UniProt P05771); test: PKC kinase activity assay; assay type: biochemical
PKC beta II, sequence (P05771 1-673 isoform P05771-2): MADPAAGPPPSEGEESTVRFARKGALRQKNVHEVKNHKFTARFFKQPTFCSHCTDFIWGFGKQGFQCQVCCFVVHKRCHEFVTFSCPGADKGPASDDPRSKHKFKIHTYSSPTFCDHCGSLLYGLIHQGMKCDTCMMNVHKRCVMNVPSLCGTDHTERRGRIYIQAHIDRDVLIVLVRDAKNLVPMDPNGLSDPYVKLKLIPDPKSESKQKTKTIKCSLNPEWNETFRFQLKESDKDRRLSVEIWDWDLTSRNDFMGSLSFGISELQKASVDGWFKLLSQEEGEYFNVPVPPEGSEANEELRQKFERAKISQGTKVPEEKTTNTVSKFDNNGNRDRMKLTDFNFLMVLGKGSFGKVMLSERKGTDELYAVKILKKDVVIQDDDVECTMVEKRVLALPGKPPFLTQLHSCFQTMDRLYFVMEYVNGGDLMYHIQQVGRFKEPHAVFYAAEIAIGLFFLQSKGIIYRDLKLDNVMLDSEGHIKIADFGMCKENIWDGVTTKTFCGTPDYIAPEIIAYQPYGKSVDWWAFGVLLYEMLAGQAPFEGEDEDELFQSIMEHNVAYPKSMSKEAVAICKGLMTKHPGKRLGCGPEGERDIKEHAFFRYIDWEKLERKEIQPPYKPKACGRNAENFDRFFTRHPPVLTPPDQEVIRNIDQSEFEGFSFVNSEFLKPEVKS
Description: as §1, with “[…] PKC kinase” for “25 μL, c-RAF”, “with 20” for “with 25”, “mM HEPES” for “mM Tris”, “pH 7.4, 0.03% Triton X-100, […], 0.1” for “pH 7.5, 0.02 mM EGTA, 0.66”, “mg/mL phosphatidylserine, 10 μg/mL diacylglycerol, 0.1 mg/mL histone H1 or 50 μM of the peptide ERMRPRKRQGSVRRRV (SEQ ID No. 20),” for “mg/mL myelin basic protein,”

CC(C)C[C@H](NC(=O)[C@@H]1CCCN1C(=O)[C@H](CC(N)=O)NC(=O)[C@H](CCCCN)NC(=O)[C@H](C)NC(=O)[C@H](CCCCN)NC(=O)[C@H](CO)NC(=O)[C@@H](N)CCCNC(=N)N)C(=O)N[C@@H](Cc1ccc(O)cc1)C(=O)N[C@@H](CCCNC(=N)N)C(=O)NCCCC[C@H](NC(=O)[C@H](CCCCNC(=O)[C@H](CCCCNC(=O)[C@H](CCCNC(=N)N)NC(=O)[C@H](Cc1ccc(O)cc1)NC(=O)[C@H](CC(C)C)NC(=O)[C@@H]1CCCN1C(=O)[C@H](CC(N)=O)NC(=O)[C@H](CCCCN)NC(=O)[C@H](C)NC(=O)[C@H](CCCCN)NC(=O)[C@H](CO)NC(=O)[C@@H](N)CCCNC(=N)N)NC(=O)[C@H](CCCNC(=N)N)NC(=O)[C@H](Cc1ccc(O)cc1)NC(=O)[C@H](CC(C)C)NC(=O)[C@@H]1CCCN1C(=O)[C@H](CC(N)=O)NC(=O)[C@H](CCCCN)NC(=O)[C@H](C)NC(=O)[C@H](CCCCN)NC(=O)[C@H](CO)NC(=O)[C@@H](N)CCCNC(=N)N)NC(=O)[C@H](CCCCNC(=O)[C@H](CCCNC(=N)N)NC(=O)[C@H](Cc1ccc(O)cc1)NC(=O)[C@H](CC(C)C)NC(=O)[C@@H]1CCCN1C(=O)[C@H](CC(N)=O)NC(=O)[C@H](CCCCN)NC(=O)[C@H](C)NC(=O)[C@H](CCCCN)NC(=O)[C@H](CO)NC(=O)[C@@H](N)CCCNC(=N)N)NC(=O)[C@H](CCCNC(=N)N)NC(=O)[C@H](Cc1ccc(O)cc1)NC(=O)[C@H](CC(C)C)NC(=O)[C@@H]1CCCN1C(=O)[C@H](CC(N)=O)NC(=O)[C@H](CCCCN)NC(=O)[C@H](C)NC(=O)[C@H](CCCCN)NC(=O)[C@H](CO)NC(=O)[C@@H](N)CCCNC(=N)N)C(=O)NCCCC[C@H](NC(=O)[C@H](CCCCNC(=O)[C@H](CCCNC(=N)N)NC(=O)[C@H](Cc1ccc(O)cc1)NC(=O)[C@H](CC(C)C)NC(=O)[C@@H]1CCCN1C(=O)[C@H](CC(N)=O)NC(=O)[C@H](CCCCN)NC(=O)[C@H](C)NC(=O)[C@H](CCCCN)NC(=O)[C@H](CO)NC(=O)[C@@H](N)CCCNC(=N)N)NC(=O)[C@H](CCCCNC(=O)[C@H](CCCCNC(=O)[C@H](CCCNC(=N)N)NC(=O)[C@H](Cc1ccc(O)cc1)NC(=O)[C@H](CC(C)C)NC(=O)[C@@H]1CCCN1C(=O)[C@H](CC(N)=O)NC(=O)[C@H](CCCCN)NC(=O)[C@H](C)NC(=O)[C@H](CCCCN)NC(=O)[C@H](CO)NC(=O)[C@@H](N)CCCNC(=N)N)NC(=O)[C@H](CCCNC(=N)N)NC(=O)[C@H](Cc1ccc(O)cc1)NC(=O)[C@H](CC(C)C)NC(=O)[C@@H]1CCCN1C(=O)[C@H](CC(N)=O)NC(=O)[C@H](CCCCN)NC(=O)[C@H](C)NC(=O)[C@H](CCCCN)NC(=O)[C@H](CO)NC(=O)[C@@H](N)CCCNC(=N)N)NC(=O)[C@H](CCCCNC(=O)[C@H](CCCNC(=N)N)NC(=O)[C@H](Cc1ccc(O)cc1)NC(=O)[C@H](CC(C)C)NC(=O)[C@@H]1CCCN1C(=O)[C@H](CC(N)=O)NC(=O)[C@H](CCCCN)NC(=O)[C@H](C)NC(=O)[C@H](CCCCN)NC(=O)[C@H](CO)NC(=O)[C@@H](N)CCCNC(=N)N)NC(=O)[C@H](CCCNC(=N)N)NC(=O)[C@H](Cc1ccc(O)cc1)NC(=O)[C@H](CC(C)C)NC(=O)[C@@H]1CCCN1C(=O)[C@H](CC(N)=O)NC(=O)[C@H](CCCCN)NC(=O)[C@H](C)NC(=O)[C@H](CCCCN)NC(=O)[C@H](CO)NC(=O)[C@@H](N)CCCNC(=N)N)C(=O)NCCC(N)=O [Dend 10-10(4)]
dendrimer concentration required for total kill, HT29 cells [1]: 10 µM | inhibition of proliferation of HT29 cells [1]: inhibited | inhibition at 1 µM ([2]; dendrimer conc. 1 μM, read-out: Percentage (%) kinase inhibition c-RAF): 71% | remaining activity at 50 µM ([3]; final concentration 50 μM, read-out: ERK2 % activity relative to control): 47% | inhibition at 1 µM ([4]; dendrimer conc. 1 μM, read-out: Percentage (%) kinase inhibition MEK1): 83% | inhibition at 1 µM ([5]; dendrimer conc. 1 μM, read-out: Percentage (%) kinase inhibition PKC beta I): 67% | inhibition at 1 µM ([6]; dendrimer conc. 1 μM, read-out: Percentage (%) kinase inhibition PKC alpha): 78% | inhibition at 1 µM ([7]; dendrimer conc. 1 μM, read-out: Percentage (%) kinase inhibition PKC beta II): 75%

Dend 10-10(4) whose RSKAKNPLYR peptides are entirely D-amino acids and pegylated with two ethylene glycol units [Dend 10-10(4)DP]
inhibition of proliferation of HT29 cells [1]: substantially greater inhibition of proliferation | % Kinase inhibition c-RAF ([2]; 20 μM, relative to control): 93% | Percentage (%) kinase inhibition c-RAF ([2]; dendrimer conc. 1 μM): 79% | Percentage (%) kinase inhibition c-RAF ([2]; dendrimer conc. 2 μM): 81% | Percentage (%) kinase inhibition c-RAF ([2]; dendrimer conc. 250 nm): 64% | Percentage (%) kinase inhibition c-RAF ([2]; dendrimer conc. 500 nm): 74% | % Kinase inhibition ERK2 ([3]; 20 μM, relative to control): 37% | % Kinase inhibition MEK1 ([4]; 20 μM, relative to control): 90% | Percentage (%) kinase inhibition MEK1 ([4]; dendrimer conc. 1 μM): 76% | Percentage (%) kinase inhibition MEK1 ([4]; dendrimer conc. 2 μM): 88% | Percentage (%) kinase inhibition MEK1 ([4]; dendrimer conc. 250 nm): 2% | Percentage (%) kinase inhibition MEK1 ([4]; dendrimer conc. 500 nm): 34% | % Kinase inhibition PKC beta I ([5]; 20 μM, relative to control): 98% | Percentage (%) kinase inhibition PKC beta I ([5]; dendrimer conc. 1 μM): 80% | Percentage (%) kinase inhibition PKC beta I ([5]; dendrimer conc. 2 μM): 96% | Percentage (%) kinase inhibition PKC beta I ([5]; dendrimer conc. 250 nm): 19% | Percentage (%) kinase inhibition PKC beta I ([5]; dendrimer conc. 500 nm): 35% | % Kinase inhibition PKC alpha ([6]; 20 μM, relative to control): 98% | Percentage (%) kinase inhibition PKC alpha ([6]; dendrimer conc. 1 μM): 83% | Percentage (%) kinase inhibition PKC alpha ([6]; dendrimer conc. 2 μM): 98% | Percentage (%) kinase inhibition PKC alpha ([6]; dendrimer conc. 250 nm): 23% | Percentage (%) kinase inhibition PKC alpha ([6]; dendrimer conc. 500 nm): 45% | % Kinase inhibition PKC beta II ([7]; 20 μM, relative to control): 83% | Percentage (%) kinase inhibition PKC beta II ([7]; dendrimer conc. 1 μM): 82% | Percentage (%) kinase inhibition PKC beta II ([7]; dendrimer conc. 2 μM): 95% | Percentage (%) kinase inhibition PKC beta II ([7]; dendrimer conc. 250 nm): 22% | Percentage (%) kinase inhibition PKC beta II ([7]; dendrimer conc. 500 nm): 44%
